# Reference: patent US8933113B2 (Merck Sharp & Dohme Corp., priority 2011, dated 2015)
# Molecular target: T1, full-length human Mineralocorticoid Receptor (MR) (Homo sapiens, UniProt P08235)
# T1 construct: host or cells: PathHunter CHO-K1 cells
# T1 sequence (P08235 1-984): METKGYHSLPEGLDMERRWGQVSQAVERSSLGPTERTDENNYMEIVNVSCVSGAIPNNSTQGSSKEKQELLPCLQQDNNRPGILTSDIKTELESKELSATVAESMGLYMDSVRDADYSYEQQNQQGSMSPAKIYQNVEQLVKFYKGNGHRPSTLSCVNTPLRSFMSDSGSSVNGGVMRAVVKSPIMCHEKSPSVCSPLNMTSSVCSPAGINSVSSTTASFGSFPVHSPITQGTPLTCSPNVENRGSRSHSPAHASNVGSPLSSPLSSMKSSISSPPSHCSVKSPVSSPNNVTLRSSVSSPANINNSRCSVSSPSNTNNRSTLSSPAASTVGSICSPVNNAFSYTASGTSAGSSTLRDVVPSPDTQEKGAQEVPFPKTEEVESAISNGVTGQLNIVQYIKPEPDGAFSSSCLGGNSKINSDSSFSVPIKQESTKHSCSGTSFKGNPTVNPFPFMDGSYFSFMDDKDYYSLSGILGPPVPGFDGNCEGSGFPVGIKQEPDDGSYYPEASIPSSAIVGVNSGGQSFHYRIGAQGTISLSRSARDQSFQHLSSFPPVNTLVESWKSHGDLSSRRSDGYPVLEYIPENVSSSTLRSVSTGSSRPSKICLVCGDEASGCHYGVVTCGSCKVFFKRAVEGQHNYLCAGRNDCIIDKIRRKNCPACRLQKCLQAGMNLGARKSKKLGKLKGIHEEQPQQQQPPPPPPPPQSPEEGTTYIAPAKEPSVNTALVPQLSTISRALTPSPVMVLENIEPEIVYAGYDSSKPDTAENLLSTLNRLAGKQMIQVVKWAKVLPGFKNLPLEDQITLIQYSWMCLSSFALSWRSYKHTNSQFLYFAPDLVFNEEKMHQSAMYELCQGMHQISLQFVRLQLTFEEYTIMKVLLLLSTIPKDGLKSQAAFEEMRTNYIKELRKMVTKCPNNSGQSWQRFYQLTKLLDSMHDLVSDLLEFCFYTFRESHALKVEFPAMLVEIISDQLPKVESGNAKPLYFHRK
# Assay: human MR NH Pro assay (PathHunter Protein:Protein interaction assay), MR antagonist activity
# Assay type: cell-based
# Details: not given
# Text: The activity of the compounds of the present invention regarding mineralocorticoid receptor antagonism can be evaluated using the following assay.
# Assessment of MR Potency in HMR NH Pro Assay
# The human MR NH Pro assay is a commercially available PathHunter™ Protein:Protein interaction assay (DiscoveRx; http://www.discoverx.com/nhrs/prod-nhrs.php) that measures the ability of compounds to antagonize full-length human Mineralocorticoid Receptor (MR) binding to a coactivator peptide.
# 6. Test compounds are titrated starting at 4.4 mM, 10-point titration in 1:3 dilution.
# 3. Add 5 μL 6× agonist (final aldosterone concentration should be about 0.3 nM to about 1.0 nM) to all wells (using the PlateMate Plus.)
# • (ThermoFisher) (except those wells in columns 23 and 24) 4. Add 5 uL of assay media to all wells in column 23 and 24. 5. Incubate 6 hrs at 37° C., 5% CO2. 6. Add 15 uL 3× DiscoveRx detection reagent to each well. 7. Incubate 1 hour at room temperature (keep plates stored in the dark). 8. Read plates on Envision (PerkinElmer) luminesence plate reader and analyze using ADA.
row,SMILES,IC50
1,"CCC(C(=O)NCCCl)(c1ccc(Cl)cc1)n1ccc2c(NS(C)(=O)=O)cccc21 (single isomer, unassigned) [Compound 148, N-(2-chloroethyl)-2-(4-chlorophenyl)-2-(4-(methylsulfonamido)-1H-indol-1-yl)butanamide]",100 to 500 nM

# Same assay, conditions: PathHunter CHO-K1 cells overexpressing human MR; aldosterone about 0.3 nM; 6 hours at 37° C.; luminescence; read-out: Primary Assay IP rating (IP = inflection point for a given dose-response titration curve)
row,IC50,SMILES
1,< 100 nM,"CCC(CC#N)(c1ccc(Cl)cc1)n1ccc2c(NS(C)(=O)=O)cc(F)cc21 (single isomer, unassigned) [Compound 125, N-(1-(2-(4-chlorophenyl)-1-cyanobutan-2-yl)-6-fluoro-1H-indol-4-yl)methanesulfonamide]"
2,100 to 500 nM,"CCC(CCC#N)(c1ccc(Cl)cc1)n1ncc2c(NS(C)(=O)=O)cccc21 (single isomer, unassigned) [Compound 137, N-(1-(3-(4-chlorophenyl)-1-cyanopentan-3-yl)-1H-indazol-4-yl)methanesulfonamide]"
3,< 100 nM,"CCC(CCC#N)(c1ccc(Cl)cc1)n1ncc2c(NS(C)(=O)=O)cccc21 (single isomer, unassigned) [Compound 138, N-(1-(3-(4-chlorophenyl)-1-cyanopentan-3-yl)-1H-indazol-4-yl)methanesulfonamide]"
4,< 100 nM,"CCC(CCC#N)(c1ccc(Cl)cc1)n1ccc2c(NS(C)(=O)=O)cccc21 (single isomer, unassigned) [Compound 140, N-(1-(3-(4-chlorophenyl)-1-cyanopentan-3-yl)-1H-indol-4-yl)methanesulfonamide]"
5,< 100 nM,"CCC(CCC#N)(c1ccc(C(F)(F)F)cc1)n1ncc2c(NS(C)(=O)=O)cccc21 (single isomer, unassigned) [Compound 141, N-(1-(1-cyano-3-(4-(trifluoromethyl)phenyl)pentan-3-yl)-1H-indazol-4-yl)methanesulfonamide]"
6,< 100 nM,"CCC(CCC#N)(c1ccc(Cl)cc1)n1ccc2c(NS(C)(=O)=O)cc(F)cc21 (single isomer, unassigned) [Compound 142, N-(1-(3-(4-chlorophenyl)-1-cyanopentan-3-yl)-6-fluoro-1H-indol-4-yl)methanesulfonamide]"
7,< 100 nM,"CCC(CCC#N)(c1ccc(Cl)cc1)n1ccc2c(NS(C)(=O)=O)cc(F)cc21 (single isomer, unassigned) [Compound 143, N-(1-(3-(4-chlorophenyl)-1-cyanopentan-3-yl)-6-fluoro-1H-indol-4-yl)methanesulfonamide]"
8,< 100 nM,"CCC(C(=O)CC#N)(c1ccc(Cl)cc1)n1ccc2c(NS(C)(=O)=O)cccc21 (single isomer, unassigned) [Compound 146, N-(1-(3-(4-Chlorophenyl)-1-cyano-2-oxopentan-3-yl)-1H-indol-4-yl)methanesulfonamide]"
9,< 100 nM,"CCC(c1ccc(Cl)cc1)(c1nc(C)no1)n1ccc2c(NS(C)(=O)=O)cccc21 (single isomer, unassigned) [Compound 150, N-(1-(1-(4-chlorophenyl)-1-(3-methyl-1,2,4-oxadiazol-5-yl)propyl)-1H-indol-4-yl)methanesulfonamide]"
10,< 100 nM,"CCc1noc(C(CC)(c2ccc(Cl)cc2)n2ccc3c(NS(C)(=O)=O)cccc32)n1 (single isomer, unassigned) [Compound 151, N-(1-(1-(4-chlorophenyl)-1-(3-ethyl-1,2,4-oxadiazol-5-yl)propyl)-1H-indol-4-yl)methanesulfonamide]"
11,< 100 nM,"CCC(C#CC#N)(c1ccc(Cl)cc1)n1ccc2c(NS(C)(=O)=O)cccc21 (single isomer, unassigned) [Compound 155, N-(1-(3-(4-chlorophenyl)-1-cyanopent-1-yn-3-yl)-1H-indol-4-yl)methanesulfonamide]"
12,< 100 nM,"CCC(CCO)(c1ccc(Cl)cc1)n1ccc2c(NS(C)(=O)=O)cccc21 (single isomer, unassigned) [Compound 160, N-(1-(3-(4-Chlorophenyl)-1-hydroxypentan-3-yl)-1H-indol-4-yl)methanesulfonamide]"
